Like-named read-outs stand apart in the source and are kept apart here.
How the values were obtained:
[1] = test system: Mouse kidney M-1 cells; assay: Ussing Chamber assay, short circuit current in M-1 cells; type: cell-based; conditions: inhibition of amiloride sensitive short circuit current (I_sc), compounds applied to the apical solution, 37° C.
Experimental: Ussing Chamber: Mouse kidney M-1 cells were cultivated in DMEM containing 5% FCS and 5 μM dexamethasone for 10 to 12 days on polyester transwell filters. Filters were inserted into a teflon-coated well-plate which fit into the ussing chamber system. Prior to measurement the medium of M-1 cells was replaced with Caco-2 transport buffer (Invitrogen, Germany). During measurements, the Ussing chamber temperature was kept at 37° C. Short circuit currents (I_sc) were measured in the voltage-clamp mode using an amplifier with the software package Lab View for data acquisition and analysis. The transepithelial electrical resistance (TEER) was determined by the application of voltage steps of ±5 mV every 5 sec. Compounds were administered at a final concentration of 3 μM or at increasing concentrations (e.g. 1-3-10 μM) to the apical solution. At the end of each experiment the amiloride sensitive I_SC was measured by adding 3 μM amiloride to the apical compartment. Results are expressed as inhibition in percent of the amiloride effect or as IC50.
With the example compounds given above, the following IC50 values given in Table 1 were determined in the Ussing Chamber assay: […]

[2] = Permeability and efflux in CALU-3 cells; type: in vitro ADME; conditions: human, Papp basal-to-apical, CALU-3 monolayers, pH 7.4, 37° C., 10 μM compound, read-out: P BA
Experimental: Permeability and Efflux in CALU-3 Cells:
Permeability measurements across polarized, confluent CALU-3 cell monolayers grown on permeable filter supports are used to provide information on the potential of a compound to pass the lung epithelium.
CALU-3 cells (1-2×10^5 cells/1 cm^2 area) are seeded on filter inserts (Costar transwell polycarbonate filters, 0.4 μm pore size) and cultured (DMEM) for 10-12 days until tight monolayers are formed. Compounds of interest are dissolved in appropriate solvent (DMSO, 10 mM stock solution). Stock solutions are diluted with HTP-4 buffer (128.13 mM NaCl, 5.36 mM KCl, 1 mM MgSO4, 1.8 mM CaCl2, 4.17 mM NaHCO3, 1.19 mM Na2HPO4×7H2O, 0.41 mM NaH2PO4×H2O, 15 mM HEPES, 20 mM glucose, 0.25% BSA, pH 7.4) to prepare the transport solutions (10 μM compound, final DMSO<=0.5%). The transport solution (TL) is applied to the apical or basolateral donor side for measuring A-B or B-A permeability (3 filter replicates), respectively. The receiver side contains the same buffer as the donor side. After 30 min of accommodation, samples are collected at the start t0=0 min and at the end of the experiment tn=90 min from the donor and at 0, 30, 60, and 90 min also from the receiver chamber. Volume removed is replenished by HTP-4 buffer. The compound concentration in the samples is measured by HPLC-MS/MS or scintillation counting. The permeability coefficient (Papp) and efflux ratio are calculated according to: Papp [cm/s]=(concentration receiver [nM]*volume receiver [mL]/time interval [sec])*(1/filter area)*(1/donor concentration [nM]) Efflux ratio or Uptake ratio=Papp,BA/Papp,AB

Compound | IC50 [1] [nM] | Papp B→A at 90 min, 10 μM ([2]; exponent E−07) [×10⁻⁶ cm/s] | Papp B→A at 90 min, 10 μM ([2]; exponent E−06 printed in the row below (r3)) [×10⁻⁶ cm/s]
COC(=O)CN(C)[C@H]1CC[C@H](N/C(N)=N/C(=O)c2nc(Cl)c(N)nc2N)CC1 [Example 1.1] | 7 | – | –
N/C(=N\C(=O)c1nc(Cl)c(N)nc1N)N[C@H]1CC[C@H](NC(=O)CN(CC(=O)O)CC(=O)O)CC1 [Example 2.1] | 304 | – | –
C[N+]1(C)CCN(CC(=O)N[C@H]2CC[C@H](N/C(N)=N/C(=O)c3nc(Cl)c(N)nc3N)CC2)CC1.[I-] [Example 3.1] | 25 | 0.229 | –
N/C(=N\C(=O)c1nc(Cl)c(N)nc1N)N[C@H]1CC[C@H](N)CC1 [Example 6.2] | 6 | < 0.272 | –
N=C(N)N[C@H]1CC[C@H](N/C(N)=N/C(=O)c2nc(Cl)c(N)nc2N)CC1 [Example 7] | 10 | – | –
CN1CCN(S(=O)(=O)N[C@H]2CC[C@H](N/C(N)=N/C(=O)c3nc(Cl)c(N)nc3N)CC2)CC1.O=C(O)C(F)(F)F [Example 8] | 25 | 0.354 | –

Further molecules by falling IC50 [1], results first:

IC50 [1] [nM] | Papp B→A at 90 min, 10 μM ([2]; exponent E−07) [×10⁻⁶ cm/s] | Papp B→A at 90 min, 10 μM ([2]; exponent E−06 printed in the row below (r3)) [×10⁻⁶ cm/s] | Compound
34 | 0.225 | – | C[C@@H](N)C(=O)N[C@H]1CC[C@H](N/C(N)=N/C(=O)c2nc(Cl)c(N)nc2N)CC1.O=C(O)C(F)(F)F [Example 6.1]
31 | – | < 2.72 | CN(C)CCCN[C@H]1CC[C@H](N/C(N)=N/C(=O)c2nc(Cl)c(N)nc2N)CC1 [Example 4.1]
10 | – | – | CC(C)(C)OC(=O)c1ccc(C(=O)N[C@H]2CC[C@H](N/C(N)=N/C(=O)c3nc(Cl)c(N)nc3N)CC2)cc1 [Example 5.1]
